Results published in patent US11733243B2, “Use of acamprosate to modulate ERK1/2 activation in animal models for FXS and ASD and individuals diagnosed with FXS and ASD” (Indiana University Research and Technology Corporation, priority 2013, dated 2023).
“And” between values parts separate entries of the source, which are not always exact repeats. Equal entries are not always repeated.

Tests used:
[1] = system: sAPP; assay: plasma sAPP total ELISA pre- and post-acamprosate; type: in vivo, human
Description: For sAPP levels, the Test plasma samples should be measured soon after collection. […] Just before assay, we thawed the test samples at a low temperature and mixed them completely. The plasma samples should be diluted appropriately with the EIA buffer, if needed. Duplicate measurement of test samples and standard are recommended. We used test samples in neutral pH range, and avoided the contaminations of organic solvent that may affect the measurement. Regarding the standard to quantify levels of sAPP, we prepared a series of sAPP standards in EIA buffer by serial dilutions, from 0.39 ng/mL to 25 ng/mL.
The ELISA plate was pre-coated with anti-human APP (R12A1) mouse IgG (IBL). First, the wells for reagent blank was determined, and 100 μL each of “EIA buffer” or 10 mM NaHCO3 buffer was added into the wells. Likewise, wells were assigned for test sample blank, test sample and diluted standard. Then 100 μL each of test sample blank, test sample and dilutions of standard was added into the appropriate wells. The test sample included the plasma sample from each subject, which may vary from 5-25 μl, made up to 100 μL with the EIA buffer. Each pre-coated plates was incubated overnight at 4° C. after covering it tightly with a plate lid. The plate was kept onto a rocker with gentle shaking. The next day, each well of the pre-coated plate was vigorously washed with wash buffer containing 0.05% Tween20 in phosphate buffer. This was performed by filling each well with wash buffer, leaving the pre-coated plate laid for 15-30 seconds and removing wash buffer completely from the plate by snapping. This procedure was repeated five times. After removing the remaining liquid from all wells completely by snapping the plate onto paper towel, we added 100 μL of labeled antibody solution into the wells of test samples, diluted standard and test sample blank. HRP labeled anti-Human APP (R101A4) mouse IgG from IBL was used. The plate was incubated for 30 minutes at 4° C. after covering it with plate lid, and then washed the plate 5 times in the same manner as described before. To develop the color, 100 μL of the Chromogen (TMB solution) was adding into the wells, and the plate was incubated for 30 minutes at room temperature in the dark.
When the liquid started turning blue (by addition of the Chromogen), 100 μL of the Stop solution (1N H2SO4) was added into the wells. […] A plate reader was used and measurements were conducted at 450 nm against a reagent blank. […]
The first project enrolled 12 youth aged 5 to 17 years with fragile X syndrome and comorbid ASD in a 10-week open-label trial of acamprosate. […] Plasma sAPP total and sAPPα were determined separately in serum using the ELISA kit obtained from Immuno Biological Laboratories (IBL, Gumma, Japan). […]

[2] = system: alcohol withdrawal associated anxiety; conditions: in vivo; cited from earlier work

CC(=O)NCCCS(=O)(=O)O [Acamprosate, 3-Acetamidopropane-1-sulfonic acid]
fractional change in sAPP(total)-CP from Baseline to Week 12 ([1]; individual patients 1-6): −0.8279 and −0.3066 and −0.0102 and −0.1029 and −0.437 and −0.544 | sAPP(total)-CP level, Week 12 ([1]; individual patients 1-6, after treatment): 5.561 ng/mL and 25.16 ng/mL and 12.84 ng/mL and 8.077 ng/mL and 56.8 ng/mL and 7.547 ng/mL | mean sAPP total post-treatment ([1]; pooled 15 participants (9 FXS, 6 idiopathic ASD), 1,054 mg/day, pre-treatment 32.6±38.3, p=0.01): 21.4 ± 32.3 ng/mL | mean sAPP total at endpoint ([1]; six subjects, idiopathic ASD trial, baseline 34.7, p=0.02): 19.3 ng/mL | alcohol withdrawal associated anxiety effects [2]: reduce alcohol withdrawal associated anxiety effects
